In brackets after ≈: the same amount, converted by molar mass.
The compounds below were run on P388 mouse leukemia cells (assay: Activity against tumor cell growth (P388, MTT, 72 h)). Conditions: P388 mouse leukemia cells, 72 h, 37° C., MTT; read-out: IC50 (50% growth inhibition concentration).
Assay type: cell-based
Procedure: Using a culture medium RPMI1640 supplemented with 10% inactivated bovine fetal serum, 2 mM glutamine, 100 μ/ml kanamycin sulfate, and 5 μM 2-hydroxyethyldisulfide (This culture medium is hereinafter referred to simply as "culture medium"), P388 mouse leukemia cells were diluted to a concentration of 1.5×10^5 cells/ml in the culture medium, and were placed in each well of 96-well multiplate in 60 μl portions. Separately, the test compound was dissolved in dimethylsulfoxide and was adequately diluted with the culture medium. The diluted solution containing test compound was added to the wells of the above plate respectively in 60 μl portions. Then the cells were incubated in a CO2 -incubator (5% CO2, 37° C.) for 72 hours.
The surviving cell numbers were measured according to the Mosmann's method (J. Immunol. Meth., 65 55-63, 1983) as follows. A 2.5 mg/ml solution of MTT (3-[4,5-dimethylthiazol-2-yl]-2,5-diphenyltetrazolium bromide) in Dulbecco's phosphate buffer solution (PBS) was prepared and added to each of the wells by 20 μl. The cells were further incubated for 3 hours. A 150 μl portion of 0.04N hydrochloric acid-isopropanol solution was added to each of the wells, and MTT-formazane formed was allowed to dissolve by pipetting. The absorbance of the solutions was measured at 540 nm taking the no-cell-containing [solution as the background. The 50% growth inhibition concentration (ICs50) was calculated from ratio of the absorbances of the treated samples to the absorbance of the no-medicine-treated sample, and from the concentration of the test compound.
Compound `COC(=O)c1c(C(F)(F)F)[nH]c2c(O)cc3c(c12)C(CCl)CN3C(=O)c1cc2cc(NC(=O)c3cc4ccccc4[nH]3)ccc2[nH]1` (centres unmarked) [Example 9, Methyl 1-chloromethyl-5-hydroxy-3-[5-[(1H-indol-2-ylcarbonyl)amino]-1H-indol-2-ylcarbonyl]-7-trifluoromethyl-1,2,3,6-tetrahydropyrrolo[3,2-e]indole-8-carboxylate] has an IC50 of 0.76 ng/mL (≈ 1.17 nM). Compound `COC(=O)c1c(C(F)(F)F)[nH]c2c1C13CC1CN(C(=O)c1cc4cc(NC(=O)c5cc6cccc(OC)c6o5)ccc4[nH]1)C3=CC2=O` (centres unmarked) [Example 25, Methyl 2-[5-[(7-methoxybenzofuran-2-ylcarbonyl)amino]-1H-indol-2-ylcarbonyl]-6-trifluoromethyl-1,2,8,8a-tetrahydrocyclopropa[c]pyrrolo[3,2-e]indole-4 (5H)-one-7-carboxylate] has an IC50 of 0.63 ng/mL (≈ 0.977 nM). Compound `COC(=O)c1c(C(F)(F)F)[nH]c2c1C13CC1CN(C(=O)c1cc4cc(NC(=O)c5ccc6ccccc6c5)ccc4[nH]1)C3=CC2=O` (centres unmarked) [Example 29, Methyl 3-[5-[(naphthalene-3-ylcarbonyl)amino]1H-indol-2-ylcarbonyl]-6-trifluoromethyl-1,2,8,8a-tetrahydrocyclopropa[c]pyrrolo[3,2-e]indol-4 (5H)-one-7-carboxylate] has an IC50 of 1.2 ng/mL (≈ 1.92 nM). Work on `COC(=O)c1c(C(F)(F)F)[nH]c2c1C13CC1CN(C(=O)c1cc4cc(NC(=O)c5cnc6ccccc6c5)ccc4[nH]1)C3=CC2=O` (centres unmarked) [Example 30, Methyl 3-[5-[(quinoline-3-ylcarbonyl)amino]-1H-indol-2-ylcarbonyl]-6-trifluoromethyl-1,2,8,8a-tetrahydrocyclopropa[c]pyrrolo[3,2-e]indol-4 (5H)-one-7-carboxylate] yielded an IC50 of 0.22 ng/mL (≈ 0.352 nM). Compound `COC(=O)c1c(C(F)(F)F)[nH]c2c1C13CC1CN(C(=O)c1cc4cc(NC(=O)c5cc6c(cn5)[nH]c5ccccc56)ccc4[nH]1)C3=CC2=O` (centres unmarked) [Example 33, Methyl 2-[5-[(9H-pyrido[3,4-b]indol-3-ylcarbonyl)amino]-1H-indol-2-ylcarbonyl]-6-trifluoromethyl-1,2,8,8a-tetrahydrocyclopropa[c]pyrrolo[3,2-e]indol-4 (5H)-one-7-carboxylate] has an IC50 of 0.17 ng/mL (≈ 0.256 nM). Compound `COC(=O)c1c(C(F)(F)F)[nH]c2c(O)cc3c(c12)C(CBr)CN3C(=O)c1cc2cc(NC(=O)c3cc4cc(OC)c(OC)c(OC)c4[nH]3)ccc2[nH]1` (centres unmarked) [Example 39, Methyl 1-bromomethyl-5-hydroxy-7-trifluoromethyl-3-[5[(5,6,7-trimethoxy1H-indol-2-ylcarbonyl)amino]-1H-indol-2-ylcarbonyl]-1,2,3,6-tetrahydropyrrolo[3,2-e]indole-8-carboxylate] has an IC50 of 0.2 ng/mL (≈ 0.255 nM). `COC(=O)c1c(C(F)(F)F)[nH]c2c(O)cc3c(c12)C(CBr)CN3C(=O)c1cc2cc(NC(=O)c3cc4c(OC)c(OC)c(OC)cc4[nH]3)ccc2[nH]1` (centres unmarked) [Example 40, Methyl 1-bromomethyl-5-hydroxy-7-trifluoromethyl-3-[5-[(4,5,6-trimethoxy1H-indol-2-ylcarbonyl)amino]-1H-indol-2-ylcarbonyl]-1,2,3,6-tetrahydropyrrolo[3,2-e]indole-8-carboxylate] was tested, and the IC50 was 0.08 ng/mL (≈ 0.102 nM). For `COC(=O)c1c(C(F)(F)F)[nH]c2c(O)cc3c(c12)C(CBr)CN3C(=O)c1cc2cc(NC(=O)c3ccc4ccccc4c3)ccc2[nH]1` (centres unmarked) [Example 41, Methyl 1-bromomethyl-5-hydroxy-3-[5-[(naphthalene-3-ylcarbonyl)amino]-1H-indol-2-ylcarbonyl]-7-trifluoromethyl-1,2,3,6-tetrahydropyrrolo[3,2-e]indole-8-carboxylate], the IC50 was 1.6 ng/mL (≈ 2.27 nM). `COC(=O)c1c(C(F)(F)F)[nH]c2c(O)cc3c(c12)C(CBr)CN3C(=O)c1cc2cc(NC(=O)c3cnc4ccccc4c3)ccc2[nH]1` (centres unmarked) [Example 42, Methyl 1-bromomethyl-5-hydroxy-3-[5-[(quinoline-3-ylcarbonyl)amino]-1H-indol-2-ylcarbonyl]-7-trifluoromethyl-1,2,3,6-tetrahydropyrrolo[3,2-e]indole-8-carboxylate] showed an IC50 of 0.13 ng/mL (≈ 0.184 nM). For `COC(=O)c1c(C(F)(F)F)[nH]c2c(O)cc3c(c12)C(CBr)CN3C(=O)c1cc2cc(NC(=O)c3cc4c(OC)c(OC)c(OC)cc4cn3)ccc2[nH]1` (centres unmarked) [Example 44, Methyl 1-bromomethyl-5-hydroxy-7-trifluoromethyl-3-[5-[(5,6,7-trimethoxyisoquinolin-3-ylcarbonyl)amino]-1H-indol-2-ylcarbonyl]-1,2,3,6-tetrahydropyrrolo[3,2-e]indole-8-carboxylate], the IC50 was 0.07 ng/mL (≈ 0.0879 nM). Compound `COC(=O)c1c(C(F)(F)F)[nH]c2c(O)cc3c(c12)C(CBr)CN3C(=O)c1cc2cc(NC(=O)c3cc4c(cn3)[nH]c3ccccc34)ccc2[nH]1` (centres unmarked) [Example 45, Methyl 1-bromomethyl-5-hydroxy-3-[5-[(9H-pyrido[3,4-b]indol-3-ylcarbonyl)amino]-1H-indol-2-ylcarbonyl]-7-trifluoromethyl-1,2,3,6-tetrahydropyrrolo[3,2-e]indole-8-carboxylate] has an IC50 of 0.12 ng/mL (≈ 0.161 nM). With `COC(=O)c1c(C(F)(F)F)[nH]c2c(O)cc3c(c12)[C@H](CCl)CN3C(=O)c1cc2cc(NC(=O)OC(C)(C)C)ccc2[nH]1` [Example 64, Methyl (1S)-3-[5-(t-butoxycarbonyl)amino-1H-indol-2-ylcarbonyl]-1-chloromethyl-5-hydroxy-7-trifluoromethyl-1,2,3,6-tetrahydropyrrolo[3,2-e]indole-8-carboxylate] the IC50 was 3.9 ng/mL (≈ 6.43 nM). With `COC(=O)c1c(C(F)(F)F)[nH]c2c(O)cc3c(c12)[C@H](CCl)CN3C(=O)c1cc2cc(NC(=O)CN(C)C)ccc2[nH]1` [Example 65, Methyl (1S)-1-chloromethyl-3-[5 (dimethylaminomethylcarbonyl)amino-1H-indol-2-ylcarbonyl]-5-hydroxy-7-trifluoromethyl-1,2,3,6-tetrahydropyrrolo[3,2-e]indole-8-carboxylate] the IC50 was 0.11 ng/mL (≈ 0.186 nM). Compound `COC(=O)c1c(C(F)(F)F)[nH]c2c(O)cc3c(c12)[C@H](CCl)CN3C(=O)c1cc2c(OC)cccc2o1` [Example 66, Methyl (1S)-1-chloromethyl-5-hydroxy-3-(4-methoxybenzofuran-2-ylcarbonyl)-7-trifluoromethyl-1,2,3,6-tetrahydropyrrolo[3,2-e]indole-8-carboxylate] has an IC50 of 0.77 ng/mL (≈ 1.47 nM). For `COC(=O)c1c(C(F)(F)F)[nH]c2c(O)cc3c(c12)[C@H](CCl)CN3C(=O)c1cc2cc(OC)ccc2o1` [Example 67, Methyl (1S)-1-chloromethyl-5-hydroxy-3-(5-methoxybenzofuran-2-ylcarbonyl)-7-trifluoromethyl-1,2,3,6-tetrahydropyrrolo[3,2-e]indole-8-carboxylate], the IC50 was 0.026 ng/mL (≈ 0.0497 nM). With `COC(=O)c1c(C(F)(F)F)[nH]c2c(O)cc3c(c12)[C@H](CCl)CN3C(=O)c1cc2ccc(OC)cc2o1` [Example 68, Methyl (1S)-1-chloromethyl-5-hydroxy-3-(6-methoxybenzofuran-2-ylcarbonyl)-7-trifluoromethyl-1,2,3,6-tetrahydropyrrolo[3,2-e]indole-8-carboxylate] the IC50 was 0.051 ng/mL (≈ 0.0975 nM). Work on `COC(=O)c1c(C(F)(F)F)[nH]c2c(O)cc3c(c12)[C@H](CCl)CN3C(=O)c1cc2cc(OC)c(OC)c(OC)c2o1` [Example 69, Methyl (1S)-1-chloromethyl-5-hydroxy-7-trifluoromethyl-3-(5,6,7-trimethoxybenzofuran-2-ylcarbonyl)-1,2,3,6-tetrahydropyrrolo[3,2-e]indole-8-carboxylate] yielded an IC50 of 0.046 ng/mL (≈ 0.0789 nM).

— US5629430A, “Trifluoromethylpyrroloindolecarboxylic acid ester and process for production thereof” (Kyorin Pharmaceutical Co., Ltd., priority 1992, dated 1997)
